Laboratory results taken from patent US4618622A, “Sulfonates of hydroxycoumarins” (priority 1982, dated 1986).

Tests used:
[1] = target: T1, Monoaminoxidase A (Rattus norvegicus, UniProt P21396); settings: in words, known for the comparative substance; cited from earlier work
T1 sequence (P21396 1-526): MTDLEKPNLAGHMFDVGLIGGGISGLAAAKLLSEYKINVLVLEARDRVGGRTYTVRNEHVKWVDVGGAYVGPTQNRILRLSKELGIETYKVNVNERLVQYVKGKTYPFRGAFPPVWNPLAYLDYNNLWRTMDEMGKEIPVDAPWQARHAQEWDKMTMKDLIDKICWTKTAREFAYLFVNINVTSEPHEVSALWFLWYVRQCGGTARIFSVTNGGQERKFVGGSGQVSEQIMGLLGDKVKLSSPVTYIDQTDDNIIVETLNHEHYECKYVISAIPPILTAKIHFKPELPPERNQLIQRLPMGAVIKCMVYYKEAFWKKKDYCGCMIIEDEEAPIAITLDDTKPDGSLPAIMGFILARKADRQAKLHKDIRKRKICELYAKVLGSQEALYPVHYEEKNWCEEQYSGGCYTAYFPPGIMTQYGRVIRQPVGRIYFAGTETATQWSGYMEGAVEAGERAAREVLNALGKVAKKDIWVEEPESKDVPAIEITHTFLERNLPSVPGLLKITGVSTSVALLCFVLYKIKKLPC

[2] = tested on: reserpine-induced hypothermia; assay: Antidepressant action: inhibition of reserpine-induced hypothermia (reserpine test); format: in vivo, mouse (male, Swiss strain); settings: oral administration, 60 minutes before reserpine 2.15 mg/kg s.c.; mouse; temperature 2 hours after; read-out: Antidepressant action (mouse) ED50
Experimental: The test substances are administered orally, 60 minutes before the reserpine.

[3] = target: T1, Monoaminoxidase A; assay: biochemical; settings: read-out: Monoaminoxidase inhibition IC50
Experimental: Monoaminoxidase A is determined in dilute rat brain homogenate to which
1. various concentrations of the test substances and
2. ^14 C-tryptamine in a concentration of 0.4 μmol/liter are added. This mixture is incubated at 37° C. for 20 minutes, after which the reaction is terminated by means of aqueous 0.1N HCl, and the products are extracted with toluene scintillator (PPO+POPOP in toluene) and then determined. The blank value is determined in similar mixtures for an incubation time of t=0 minutes.
The mean inhibitory concentration (IC50) is calculated from the inhibitory values determined, in comparison with the control, at the various inhibitor concentrations, by means of a linear regression after logit-log transformation.

C#CCN(C)Cc1ccccc1 [Pargyline, reference compound]
action mechanism (known) [1]: inhibition of monoaminoxidase A | ED50 [2]: 48 mg/kg | IC50 [3]: 2000 nM
